Patent US20220125784A1, “METHODS AND COMPOUNDS FOR INHIBITION OF INACTIVATION OF VOLTAGE-GATED SODIUM CHANNELS” (SIMON FRASER UNIVERSITY, priority 2019, published 2022)
Like-named read-outs stand apart in the source and are kept apart here. Blank lines part the entries; values can stand above or below the compound they belong to.

How the values were obtained:
Format in all cases: cell-based
[1] = target: T1, cardiac (Nav1.5) sodium channel (Homo sapiens, UniProt Q14524); experiment: High-throughput patch clamp (QPatch/Qube 384), double voltage-pulse protocol, stable HEK293 Nav1.5; conditions: for deceleration of fast inactivation onset kinetics compared to control: preconditioning −120 mV
T1 construct: expressed in transfected cells
T1 sequence (Q14524 whole entry): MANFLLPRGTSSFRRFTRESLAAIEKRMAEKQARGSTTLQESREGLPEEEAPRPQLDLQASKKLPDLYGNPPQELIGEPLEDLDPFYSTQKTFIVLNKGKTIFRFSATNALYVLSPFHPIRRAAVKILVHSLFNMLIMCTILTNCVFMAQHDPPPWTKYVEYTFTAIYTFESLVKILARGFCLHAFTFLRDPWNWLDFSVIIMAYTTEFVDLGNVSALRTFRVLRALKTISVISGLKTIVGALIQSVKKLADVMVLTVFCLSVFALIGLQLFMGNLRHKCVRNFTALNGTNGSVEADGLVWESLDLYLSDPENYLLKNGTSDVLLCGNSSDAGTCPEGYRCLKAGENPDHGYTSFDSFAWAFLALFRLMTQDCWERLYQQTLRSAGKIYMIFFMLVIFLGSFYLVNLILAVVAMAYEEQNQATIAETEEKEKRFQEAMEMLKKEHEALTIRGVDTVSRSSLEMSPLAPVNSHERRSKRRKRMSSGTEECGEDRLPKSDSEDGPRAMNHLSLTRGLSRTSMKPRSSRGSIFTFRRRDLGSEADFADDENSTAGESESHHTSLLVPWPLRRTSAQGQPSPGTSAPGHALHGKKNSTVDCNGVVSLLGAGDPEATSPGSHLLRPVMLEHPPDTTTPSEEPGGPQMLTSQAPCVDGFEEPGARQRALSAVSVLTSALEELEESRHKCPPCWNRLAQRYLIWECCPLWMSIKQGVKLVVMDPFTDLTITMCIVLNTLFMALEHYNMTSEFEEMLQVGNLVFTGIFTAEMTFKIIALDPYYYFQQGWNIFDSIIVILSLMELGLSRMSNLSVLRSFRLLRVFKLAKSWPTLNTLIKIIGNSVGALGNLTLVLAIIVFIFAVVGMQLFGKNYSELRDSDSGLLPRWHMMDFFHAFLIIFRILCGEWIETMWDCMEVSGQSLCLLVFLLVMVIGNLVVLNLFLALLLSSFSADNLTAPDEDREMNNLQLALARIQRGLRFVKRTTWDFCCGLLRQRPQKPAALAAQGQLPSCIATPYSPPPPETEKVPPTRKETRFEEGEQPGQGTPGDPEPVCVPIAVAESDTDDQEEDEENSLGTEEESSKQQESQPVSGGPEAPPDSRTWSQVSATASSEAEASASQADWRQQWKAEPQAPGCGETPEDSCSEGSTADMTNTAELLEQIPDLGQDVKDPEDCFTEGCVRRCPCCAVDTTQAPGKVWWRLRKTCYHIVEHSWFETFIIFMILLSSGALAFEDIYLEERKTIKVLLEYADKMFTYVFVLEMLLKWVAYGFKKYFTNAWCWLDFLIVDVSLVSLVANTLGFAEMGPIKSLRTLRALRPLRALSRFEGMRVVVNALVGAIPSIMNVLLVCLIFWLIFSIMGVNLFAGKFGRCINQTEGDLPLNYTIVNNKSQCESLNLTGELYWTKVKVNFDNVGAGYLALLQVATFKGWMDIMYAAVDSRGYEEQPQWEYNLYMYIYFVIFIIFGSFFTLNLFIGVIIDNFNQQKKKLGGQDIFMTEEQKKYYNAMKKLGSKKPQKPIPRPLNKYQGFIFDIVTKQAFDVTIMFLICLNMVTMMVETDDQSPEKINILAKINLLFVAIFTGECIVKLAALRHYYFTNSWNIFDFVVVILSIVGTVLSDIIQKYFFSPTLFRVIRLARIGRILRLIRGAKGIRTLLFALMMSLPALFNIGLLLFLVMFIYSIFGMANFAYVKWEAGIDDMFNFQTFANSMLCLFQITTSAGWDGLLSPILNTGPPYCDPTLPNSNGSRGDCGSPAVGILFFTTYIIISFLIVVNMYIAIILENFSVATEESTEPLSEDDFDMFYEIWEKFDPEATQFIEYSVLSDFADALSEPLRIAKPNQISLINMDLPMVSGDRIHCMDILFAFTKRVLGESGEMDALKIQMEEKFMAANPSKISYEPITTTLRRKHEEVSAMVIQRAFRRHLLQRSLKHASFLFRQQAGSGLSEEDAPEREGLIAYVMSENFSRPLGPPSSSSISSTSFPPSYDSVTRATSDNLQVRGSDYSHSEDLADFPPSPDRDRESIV
Procedure: (§1) In another set of studies, we used high-throughput patch clamp techniques using the QPatch (Qube) 384 to screen compounds against both neuronal and cardiac sodium channels. We used a different electrophysiology assay (double voltage-pulse protocol; FIG. 3C) to detect potentiators, inhibitors, and compounds that do both. The protocol assesses these parameters at both rest and partially inactivated holding potentials. For this assay, we used nine compounds from Table 2 that were diluted to 50 μM in DMSO for biophysical assessment of channel gating. The extracellular solution used in these experiments was Ringer solution.
(§2) The nine compounds were screened against the wild type (WT) cardiac (Nav1.5) and neuronal (Nav1.1) sodium channel α-subunits stably expressed in Human Embryonic Kidney (HEK293) along with the β1-subunit.
(§3) Currents were assessed by a test pulse of 0 mV from a holding potential at rest (−120 mV) before preconditioning at the appropriate V1/2 for the sodium channel subtype (V1/2=−90 mV and V1/2=−65 mV for Nav1.5 and Nav1.1, respectively) for 10 s. Parameters were tested following 5 min of incubation with the compounds and normalized to control (vehicle). Peak current, the time constant of inactivation, and the area under the curve (AUC) were measured.

[2] = target: T2, neuronal (Nav1.1) sodium channel (Homo sapiens, UniProt P35498); experiment: High-throughput patch clamp (QPatch/Qube 384), double voltage-pulse protocol, stable HEK293 Nav1.1
T2 construct: expressed in transfected cells
Procedure: as §1, §2, §3

WT Nav1.5-α subunits [3] = target: T3, WT Nav1.5-α subunits (Homo sapiens, UniProt Q14524); experiment: Whole-cell patch clamp, single voltage-pulse protocol (peak INa, conductance, fast inactivation) in transiently transfected HEK293 cells; conditions: for Peak INa −20 mV: normalized peak INa, 37° C.
T3 construct: expressed in transfected cells; host or cells: HEK293 (transient transfection)
T3 sequence (Q14524 whole entry): as above
Procedure: (§4) In one set of studies, we used a whole-cell patch clamp technique with single voltage-pulse protocols (FIGS. 3A-B) to characterize compounds ZINC38767171, ZINC39699427, ZINC40014265, ZINC64470729, ZINC64470737 and ZINC64470745. Whole-cell patch clamp was performed in extracellular solution containing (in mM): 140 NaCl, 4 KCl, 2 CaCl2, 1 MgCl2, and 10 HEPES (pH 7.4 adjusted with CsOH). The intracellular pipettes were dipped in dental wax and thermally polished to attain a resistance of 1.0-1.5 MΩ. The intracellular solutions contained (in mM): 130 CsF, 10 NaCl, 10 HEPES, and 10 EGTA titrated to pH 7.4. The six compounds, ZINC38767171, ZINC39699427, ZINC40014265, ZINC64470729, ZINC64470737 and ZINC64470745, chosen for electrophysiology characterization, ordered from MolPort (Easy compound ordering services), were diluted to 10 μM, 50 μM, and 100 μM in extracellular solution for biophysical assessment of channel gating.
(§5) The six compounds were screened against wild type (WT) Nav1.5-α subunits at the optimal physiological temperature of 37° C. Human Embryonic Kidney (HEK293) cells were transfected with WT Nav1.5-α subunits (transient transfections). The α subunits were co-expressed with the β1 subunit and eGFP (enhanced green fluorescence protein) in a 2:1:2 ratio, respectively.
Conductance was measured by a protocol that depolarized the membrane from −100 mV to +80 mV in increments of +5 mV for 19 ms. Prior to the test pulse, channels were allowed to recover from fast inactivation at −130 mV for 197 ms. The tested compounds had no effect on the conductance midpoint (FIGS. 6A-F).
At voltages greater than −50 mV, the fast inactivation T values were calculated from the mono-exponential fit to the decay of sodium current.

WT Nav1.5-α subunits [4] = target: T3, WT Nav1.5-α subunits; experiment: Whole-cell patch clamp, use-dependence (slow inactivation) protocol at 6 Hz in transiently transfected HEK293 cells
Procedure: as §4, §5
Slow inactivation (SI) was indirectly determined by measuring use-dependence, which is a physiologically-relevant protocol. The protocol includes a series of 500 110 ms depolarizing pulses to 0 mV followed by a 55 ms-90 mV recovery pulse at a frequency 6 Hz. With repetitive depolarizations, Nav1.5 channels accumulate into slow inactivation.

[5] = HEK293, holding potential −120 mV, read-out: Normalized inhibition of peak sodium current
[6] = 50 μM, holding potential −120 mV

effect on tau of inactivation from holding potential −120 mV ([2]; 50 μM): accelerates inactivation | normalized area under curve (AUC) ratio of activated sodium current [2, 6]: substantially reduces | inhibition at 50 µM [2, 5]: ~32% | inhibition at 50 µM ([2]; HEK293, −65 mV for 10 s, read-out: Normalized inhibition of peak sodium current after 10 s pulse to mid-voltage potential): ~80%
Compound: Cc1nc(-n2cccc2)sc1C(=O)N=c1[nH]c2ccccc2[nH]1 [ZINC12323863, N-(1H-benzimidazol-2-yl)-4-methyl-2-pyrrol-1-yl-thiazole-5-carboxamide]
deceleration of fast inactivation onset kinetics compared to control ([1]; 50 μM): 1.5 fold | inhibition at 50 µM [1, 5]: ~32% | inhibition at 50 µM ([1]; HEK293, −90 mV for 10 s, read-out: Normalized inhibition of peak sodium current after 10 s pulse to mid-voltage potential): ~80%

Compound: CN(C)[C@@H](CNC(=O)c1ccc2c(c1)=NC(=O)C(=O)N=2)c1ccco1 [ZINC40014265, N-[(2S)-2-(dimethylamino)-2-(2-furyl)ethyl]-2,3-dioxo-quinoxaline-6-carboxamide]
% Block −20 mV (WT Nav1.5-α subunits [3]; 10 μM): −20.00% | fast inactivation onset time constant FI +10 mV (WT Nav1.5-α subunits [3]; 10 μM): 0.23 ± 0.02 ms | fast inactivation onset time constant FI −10 mV (WT Nav1.5-α subunits [3]; 10 μM): 0.33 ± 0.03 ms | fast inactivation onset time constant FI −30 mV (WT Nav1.5-α subunits [3]; 10 μM): 0.63 ± 0.07 ms | fast inactivation onset time constant FI −50 mV (WT Nav1.5-α subunits [3]; 10 μM): 2.98 ± 0.84 ms | Peak INa −20 mV (WT Nav1.5-α subunits [3]; 10 μM): −0.80 ± 0.06 | % Block −20 mV (WT Nav1.5-α subunits [3]; 50 μM): −37.00% | fast inactivation onset time constant FI +10 mV (WT Nav1.5-α subunits [3]; 50 μM): 0.25 ± 0.03 ms | fast inactivation onset time constant FI −10 mV (WT Nav1.5-α subunits [3]; 50 μM): 0.37 ± 0.05 ms | fast inactivation onset time constant FI −30 mV (WT Nav1.5-α subunits [3]; 50 μM): 0.69 ± 0.11 ms | fast inactivation onset time constant FI −50 mV (WT Nav1.5-α subunits [3]; 50 μM): 2.18 ± 0.70 ms | Peak INa −20 mV (WT Nav1.5-α subunits [3]; 50 μM): −0.63 ± 0.06 | % Block −20 mV (WT Nav1.5-α subunits [3]; 100 μM): −41.00% | fast inactivation onset time constant FI +10 mV (WT Nav1.5-α subunits [3]; 100 μM): 0.26 ± 0.07 ms | fast inactivation onset time constant FI −10 mV (WT Nav1.5-α subunits [3]; 100 μM): 0.37 ± 0.09 ms | fast inactivation onset time constant FI −30 mV (WT Nav1.5-α subunits [3]; 100 μM): 0.69 ± 0.17 ms | fast inactivation onset time constant FI −50 mV (WT Nav1.5-α subunits [3]; 100 μM): 2.17 ± 0.73 ms | Peak INa −20 mV (WT Nav1.5-α subunits [3]; 100 μM): −0.59 ± 0.06 | Peak INa Slope (WT Nav1.5-α subunits [3]; Hill curve slope): 1.064 | IC50 (WT Nav1.5-α subunits [3]; Hill curve, single voltage-pulse protocol): 12.6 µM | UDI Block Slope (WT Nav1.5-α subunits [4]; Hill curve slope): 0.511 | IC50 (WT Nav1.5-α subunits [4]; Hill curve, use-dependence at 6 Hz, read-out: UDI Block IC50): 269 µM | effect on peak INa [1, 6]: did not inhibit peak sodium current | normalized area under curve (AUC) ratio of activated sodium current [1, 6]: slightly increased | deceleration of fast inactivation onset kinetics compared to control ([1]; 50 μM): 1.5 fold
